# Assay results from patent US20140356293A1, “FLUORESCENT COMPOSITIONS WITH ENHANCED FLUORESCENCE AND METHODS BASED THEREON” (The Research Foundation of the State University o New York, priority 2012, published 2014).
# Values joined by “and” are separate entries in the source; they are usually repeats but may differ in a detail not shown here. Equal values may be shown once. Read-outs that look alike come from different tables or passages of the source.
# How the values were obtained:
# [1] = in vivo; cited from earlier work
# [2] = Aqueous ICG preparation used to image the urinary tract of rats; type: physicochemical; details: aqueous solution 2.5 mg/ml diluted
# Description: ICG used to image the urinary tract of rats was prepared according to package insert instructions (aqueous solution 2.5 mg/ml) and diluted to 10 μg/ml to achieve peak fluorescence. It was observed that the fluorescence of these preparations was not as intense as that achieved when ICG was injected intravenously and diluted into the blood.
# [3] = cited from earlier work
# [4] = Relative fluorescence intensity of ICG formulations in Petri dishes, NIRF imaging system; type: physicochemical; details: for maximum fluorescent intensity: 5 μg/ml ICG
# Description: Real-time near-infrared fluorescent (NIRF) imaging was accomplished using a NIRF imaging system. The ring light was coupled to a tungsten halogen source filtered with a Chroma excitation filter (775 nm). The Navitar Zoom 7000 lens was fitted with a Chroma emission filter (845 nm). Images were captured with a Qimaging Retiga camera. Petri dishes (35 mm diameter) were positioned in the imaging system that contained 2 ml of a sample of an enhanced fluorescent composition comprising ICG. This system was used in the investigations of ICG fluorescence enhancement described in this example. Excitation light was delivered to the field of interest using a fiber optic ring light coupled to a tungsten halogen source (Illumination Technologies, Inc. IT 9596-ER) filtered with a 775 nm bandpass filter (Chroma Technologies). A Navitar Zoom 7000 Lens was fitted on a Qimaging Retiga EXi cooled CCD camera.
# Indocyanine Green (ICG) stock solutions were prepared by adding 10 ml of diluent to a 25 mg vial of IC Green (Akorn Incorporated). Diluents were water (supplied by the manufacturer), ethanol, or dimethyl sulfoxide (DMSO).
# Milk solutions were prepared by dissolving Instant Nonfat Dry Milk (Nestle Carnation) in water at various concentrations up to 30% weight to volume
# To prepare ICG-based enhanced fluorescent compositions, ICG stock solutions were added to achieve concentrations up to 250 μg/ml. Relative fluorescence intensity of various formulations was measured in 35 mm circular Petri dishes containing 2 ml. A floating toothpick provided a focusing target.
# Intralipid formulations were prepared from Intralipid 20% (Fresenius Kabi), which is a sterile non-pyrogenic fat emulsion prepared for intravenous administration for parenteral nutrition. Intralipid is also a vehicle for intravenous (i.v.) delivery of propofol, and is used as an antidote for acute local anesthetic toxicity. It is a white opaque liquid containing 20% soy bean oil, egg phospholipids, glycerin, and water. ICG stock solutions were added to achieve a range of concentrations of ICG up to 250 μg/ml in the enhanced fluorescent composition.
# Stock aqueous ICG solution was diluted into 10, 20, and 30% milk to achieve 1, 5, 10, and 20 μg/ml final concentrations. Fluorescent images of 2 ml of each preparation in 35 mm Petri dishes were acquired using QCapture and quantified using ImageJ.
# […] […] The ICG in DMSO (“ICG/DMSO”) stock solution was diluted into Enfamil and fluorescence intensity measured.
# Intralipid is milk-like in its appearance and the major ingredient is 20% soy bean oil. Because Intralipid is approved for human intravenous use, a series of diluted solutions was prepared from the ICG/DMSO stock solution.
# In the work summarized in FIG. 9, solutions of ICG were prepared in DMSO, water, or ethanol at 2.5 mg/ml and then diluted to the indicated concentrations across the top of the figure in the diluents listed down the left side. The DMSO and ethanol diluents were diluted with water. Two ml of each solution was transferred to a Petri dish and imaged as described herein in an NIRF imaging system. […] Also imaged were the same ICG concentrations in 5% ethanol and water. […] The use of ethanol and DMSO in pharmaceuticals is limited by the toxicity of these compounds.
# [5] = Stability of ICG fluorescence (storage of stock solutions; constant illumination); type: physicochemical
# Description: A vial of ICG containing 2.5 mg of ICG was dissolved into 10 ml of DMSO. […] Aqueous solutions fade rapidly. The ICG in DMSO (“ICG/DMSO”) stock solution was diluted into Enfamil and fluorescence intensity measured. […] The DMSO concentration at the peak fluorescence was 0.3%. Thus enhancement of fluorescence intensity was similar to that observed with use of reconstituted nonfat dry milk.
# With respect to FIG. 12, a solution of ICG in Enfamil (8 μg/ml) in a Petri dish was positioned in the imaging system. With constant illumination the fluorescence image was captured every 10 seconds for 22 minutes.
smiles,measurement,setting,value
"CC1(C)C(/C=C/C=C/C=C/C=C2\N(CCCCS(=O)(=O)O)c3ccc4ccccc4c3C2(C)C)=[N+](CCCCS(=O)(=O)[O-])c2ccc3ccccc3c21 [ICG, Indocyanine green]",Route of excretion,[1],excreted exclusively in the bile
same,ICG concentration to achieve peak fluorescence,[2],10 µg/mL
same,Maximum fluorescence wavelength,[3]; in blood,approximately 830 nm
same,maximum absorption,[3]; in plasma at low concentrations,~800 nm
same,Maximum fluorescence wavelength,[3]; in water,approximately 810 nm
same,maximum fluorescent intensity,"[4]; 10% milk, arbitrary units of integrated density",about 950000 IntDen
same,maximum fluorescent intensity,[4]; 20% milk,about 1000000 IntDen
same,maximum fluorescent intensity,[4]; 30% milk,about 1150000 IntDen
same,Dependence of fluorescence on milk concentration,"[4]; 10, 20, 30% milk",increased with milk concentration
same,Fluorescence intensity versus ICG concentration,"[4]; 25% DMSO in water, FIG. 9",increased from 1 to 100 μg/ml
same,ICG concentration at which imaging system was fully saturated,"[4]; 100% DMSO, FIG. 9",12.5 µg/mL
same,Fluorescence intensity versus ICG concentration,"[4]; 100% ethanol, FIG. 9",lower than in DMSO but increased up to 100 μg/ml
same,ICG concentration at peak fluorescence,"[4]; ICG in DMSO diluted into Enfamil, Example 2, FIG. 10",around 8 μg/ml
same,ICG concentration at peak fluorescence,"[4]; ICG in DMSO diluted into Intralipid, exposure time reduced from 90 to 70 ms, Example 2, FIG. 10",8 µg/mL
same,ICG concentration at peak fluorescence,"[4]; ICG/DMSO stock (2.5 mg/ml) diluted into Enfamil, final DMSO 0.3%, Example 1, FIG. 5",7.8 µg/mL
same,ICG concentration at peak fluorescence,"[4]; aqueous ICG stock diluted into 10, 20 and 30% reconstituted nonfat dry milk, 1, 5, 10, 20 μg/ml tested",5 µg/mL
same,ICG concentration at which quenching occurred,"[4]; in 10, 20 and 30% reconstituted dry milk",≥ 10 µg/mL
same,ICG concentration at which fluorescence decreased (quenched),"[4]; in Enfamil, FIG. 9",50 µg/mL and 100 µg/mL
same,Fluorescence of ICG diluted into water or saline,[4]; same imaging conditions as milk preparations,no detectable fluorescence
same,Persistence of fluorescence of aqueous solutions,[5],fade rapidly
